Data set [1] deals with Genome polyprotein (dengue virus type 2, UniProt P29990). The data set can be described thus: Inhibition of Dengue virus serotype 2 NS2B-NS3 protease expressed in Escherichia coli BL21 lambda (DE3) cells using Abz-Nle-Lys-Arg-Arg-Ser-3-(NO2)Tyr as substrate preincubated for 15 mins followed by substrate addition and measured for 15 mins by FRET assay.
For data set [2], the target named is Genome polyprotein (West Nile virus) (UniProt P06935). Kind of data set: Inhibition of West Nile virus NS2B-NS3 protease expressed in Escherichia coli BL21 lambda (DE3) cells at 50 uM using Abz-Gly-Leu-Lys-Arg-Gly-Gly-3-(NO2)Tyr as substrate preincubated for 15 mins followed by substrate addition measured for 15 mins by fluorimetric analysis relative to control.
Chain of Genome polyprotein (West Nile virus) (P06935 whole entry): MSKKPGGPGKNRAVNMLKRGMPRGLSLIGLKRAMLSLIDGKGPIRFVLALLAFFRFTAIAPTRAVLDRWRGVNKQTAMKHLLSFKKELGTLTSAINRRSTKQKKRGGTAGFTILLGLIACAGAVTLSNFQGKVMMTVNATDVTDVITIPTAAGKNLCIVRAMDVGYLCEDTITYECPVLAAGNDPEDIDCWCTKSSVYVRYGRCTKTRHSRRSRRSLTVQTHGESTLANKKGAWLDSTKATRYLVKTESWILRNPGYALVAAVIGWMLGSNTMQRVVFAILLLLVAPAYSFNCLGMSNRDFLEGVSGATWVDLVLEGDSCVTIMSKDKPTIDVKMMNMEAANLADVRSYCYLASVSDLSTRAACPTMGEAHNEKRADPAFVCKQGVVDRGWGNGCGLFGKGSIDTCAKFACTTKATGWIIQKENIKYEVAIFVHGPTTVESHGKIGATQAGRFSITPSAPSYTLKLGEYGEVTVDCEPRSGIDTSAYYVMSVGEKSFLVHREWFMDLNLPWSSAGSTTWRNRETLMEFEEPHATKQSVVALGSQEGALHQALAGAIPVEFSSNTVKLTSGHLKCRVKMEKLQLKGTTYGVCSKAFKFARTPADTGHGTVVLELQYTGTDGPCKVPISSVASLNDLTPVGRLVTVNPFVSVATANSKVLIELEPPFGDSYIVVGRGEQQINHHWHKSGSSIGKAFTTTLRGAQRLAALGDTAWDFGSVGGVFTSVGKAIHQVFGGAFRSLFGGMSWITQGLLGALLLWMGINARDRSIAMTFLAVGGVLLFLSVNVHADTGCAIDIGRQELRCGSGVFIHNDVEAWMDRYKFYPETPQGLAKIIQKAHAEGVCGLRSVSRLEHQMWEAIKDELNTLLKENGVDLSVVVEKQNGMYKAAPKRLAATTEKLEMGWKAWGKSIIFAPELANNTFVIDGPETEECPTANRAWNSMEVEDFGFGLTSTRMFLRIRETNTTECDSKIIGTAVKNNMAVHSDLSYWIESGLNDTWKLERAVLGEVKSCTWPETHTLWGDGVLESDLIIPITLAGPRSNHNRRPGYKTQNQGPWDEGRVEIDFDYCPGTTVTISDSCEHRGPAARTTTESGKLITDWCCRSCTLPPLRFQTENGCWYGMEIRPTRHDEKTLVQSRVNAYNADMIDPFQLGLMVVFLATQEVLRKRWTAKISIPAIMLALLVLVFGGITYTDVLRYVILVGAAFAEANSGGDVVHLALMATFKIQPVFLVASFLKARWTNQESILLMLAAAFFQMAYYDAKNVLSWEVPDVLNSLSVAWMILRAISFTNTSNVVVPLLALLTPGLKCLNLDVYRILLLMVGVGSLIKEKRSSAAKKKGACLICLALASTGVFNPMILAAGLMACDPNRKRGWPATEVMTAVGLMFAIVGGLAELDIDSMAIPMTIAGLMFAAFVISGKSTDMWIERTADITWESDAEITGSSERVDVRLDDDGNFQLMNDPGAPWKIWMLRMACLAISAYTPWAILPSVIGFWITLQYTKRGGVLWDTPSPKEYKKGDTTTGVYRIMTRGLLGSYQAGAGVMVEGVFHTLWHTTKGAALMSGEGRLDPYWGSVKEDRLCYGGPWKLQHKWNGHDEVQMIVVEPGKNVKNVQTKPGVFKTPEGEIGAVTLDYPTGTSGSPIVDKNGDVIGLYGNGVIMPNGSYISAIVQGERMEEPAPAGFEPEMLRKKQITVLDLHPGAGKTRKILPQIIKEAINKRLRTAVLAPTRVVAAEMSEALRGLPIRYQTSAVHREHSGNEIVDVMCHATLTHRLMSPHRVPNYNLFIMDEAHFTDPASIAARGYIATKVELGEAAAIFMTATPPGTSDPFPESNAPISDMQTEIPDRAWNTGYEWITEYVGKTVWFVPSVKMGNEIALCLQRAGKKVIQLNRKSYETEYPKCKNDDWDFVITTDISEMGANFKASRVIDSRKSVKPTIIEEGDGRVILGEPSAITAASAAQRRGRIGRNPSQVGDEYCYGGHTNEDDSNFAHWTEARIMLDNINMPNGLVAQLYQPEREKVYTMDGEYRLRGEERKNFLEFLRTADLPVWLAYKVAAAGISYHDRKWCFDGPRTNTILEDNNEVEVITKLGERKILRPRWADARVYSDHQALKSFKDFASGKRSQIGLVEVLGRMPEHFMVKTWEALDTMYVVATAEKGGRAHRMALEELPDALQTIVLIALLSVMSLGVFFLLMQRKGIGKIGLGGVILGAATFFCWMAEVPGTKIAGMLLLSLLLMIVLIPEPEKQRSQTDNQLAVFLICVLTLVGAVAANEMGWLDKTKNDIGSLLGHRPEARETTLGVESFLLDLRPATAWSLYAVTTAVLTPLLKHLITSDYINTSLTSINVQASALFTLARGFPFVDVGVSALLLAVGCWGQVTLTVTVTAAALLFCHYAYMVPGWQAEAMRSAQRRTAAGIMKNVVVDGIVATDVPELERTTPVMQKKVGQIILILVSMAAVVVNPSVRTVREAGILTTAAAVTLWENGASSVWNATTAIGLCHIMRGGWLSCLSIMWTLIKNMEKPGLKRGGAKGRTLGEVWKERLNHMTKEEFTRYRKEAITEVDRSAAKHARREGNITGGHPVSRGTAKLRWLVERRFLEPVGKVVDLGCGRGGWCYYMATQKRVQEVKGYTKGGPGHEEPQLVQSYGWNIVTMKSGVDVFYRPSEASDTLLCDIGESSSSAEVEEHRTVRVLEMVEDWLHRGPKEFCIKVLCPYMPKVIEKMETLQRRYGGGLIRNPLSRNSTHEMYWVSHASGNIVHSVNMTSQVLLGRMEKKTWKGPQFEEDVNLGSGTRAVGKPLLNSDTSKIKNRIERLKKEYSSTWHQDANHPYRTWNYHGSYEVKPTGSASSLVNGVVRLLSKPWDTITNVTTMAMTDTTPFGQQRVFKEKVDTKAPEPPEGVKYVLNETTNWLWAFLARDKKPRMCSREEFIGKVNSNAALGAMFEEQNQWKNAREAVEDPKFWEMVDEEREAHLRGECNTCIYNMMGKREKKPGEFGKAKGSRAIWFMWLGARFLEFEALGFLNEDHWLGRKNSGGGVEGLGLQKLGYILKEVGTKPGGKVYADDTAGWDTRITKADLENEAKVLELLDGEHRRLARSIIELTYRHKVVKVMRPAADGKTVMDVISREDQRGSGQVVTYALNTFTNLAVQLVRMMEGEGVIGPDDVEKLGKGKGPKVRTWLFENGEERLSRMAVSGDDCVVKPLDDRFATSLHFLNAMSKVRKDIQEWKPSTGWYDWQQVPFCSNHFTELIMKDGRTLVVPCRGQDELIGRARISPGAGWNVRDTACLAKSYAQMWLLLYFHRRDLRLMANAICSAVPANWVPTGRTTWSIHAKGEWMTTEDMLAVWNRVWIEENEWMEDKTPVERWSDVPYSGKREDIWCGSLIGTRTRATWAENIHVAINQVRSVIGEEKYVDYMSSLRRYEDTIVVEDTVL

Another data set has as its target Trypsin (Homo sapiens, UniProt P07477+P07478+P35030). The data set can be described thus: Inhibition of trypsin (unknown origin) at 50 uM using Boc-Val-Pro-Arg-AMC as substrate preincubated for 15 mins followed by substrate addition and measured for 15 mins by fluorimetric assay relative to control. The class given is protein assay. Particulars: 0.25 h, 50 µM.
The target in data set [3] is Genome polyprotein (dengue virus type 2) (UniProt P29990). Kind of data set: Inhibition of Dengue virus serotype 2 NS2B-NS3 protease transfected in human HeLa cells at 12.5 uM measured after 24 hrs by Renilla-luciferase reporter gene assay relative to control. Format: cell-based. On the technique in general: Reporter assays use an easily measured gene product as a stand-in for the process of interest.

The target of the next data set is Prothrombin (Homo sapiens, UniProt P00734). The data set can be described thus: Inhibition of thrombin (unknown origin) at 25 uM using Boc-Val-Pro-Arg-AMC as substrate preincubated for 15 mins followed by substrate addition and measured for 15 mins by fluorimetric assay. The note with it: 0.25 h.
Data set [4] has as its target Genome polyprotein (dengue virus type 2) (UniProt P29990). Kind of data set: Inhibition of Dengue virus serotype 2 NS2B-NS3 protease expressed in Escherichia coli BL21 lambda (DE3) cells at 50 uM using Abz-Nle-Lys-Arg-Arg-Ser-3-(NO2)Tyr as substrate preincubated for 15 mins followed by substrate addition and measured for 15 mins by FRET assay relative to control.
A short description of data set [5]: Cytotoxicity against human HeLa cells assessed as reduction in cell viability measured after 24 hrs by celltiter-blue assay. Format: cell-based. Background: Alamar Blue is a resazurin reagent that responds to reducing activity.
For data set [6], the target named is Genome polyprotein (West Nile virus, UniProt P06935). The data set can be described thus: Inhibition of West Nile virus NS2B-NS3 protease expressed in Escherichia coli BL21 lambda (DE3) cells using Abz-Gly-Leu-Lys-Arg-Gly-Gly-3-(NO2)Tyr as substrate preincubated for 15 mins followed by substrate addition measured for 15 mins by fluorimetric analysis.
Chain of Genome polyprotein (West Nile virus, UniProt P06935) (P06935 1371-1501 limits assumed): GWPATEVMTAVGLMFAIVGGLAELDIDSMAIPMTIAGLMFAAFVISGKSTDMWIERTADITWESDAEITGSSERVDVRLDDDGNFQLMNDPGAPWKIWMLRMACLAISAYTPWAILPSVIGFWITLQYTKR
Chain of Genome polyprotein (West Nile virus, UniProt P06935) (P06935 1502-2120 limits assumed): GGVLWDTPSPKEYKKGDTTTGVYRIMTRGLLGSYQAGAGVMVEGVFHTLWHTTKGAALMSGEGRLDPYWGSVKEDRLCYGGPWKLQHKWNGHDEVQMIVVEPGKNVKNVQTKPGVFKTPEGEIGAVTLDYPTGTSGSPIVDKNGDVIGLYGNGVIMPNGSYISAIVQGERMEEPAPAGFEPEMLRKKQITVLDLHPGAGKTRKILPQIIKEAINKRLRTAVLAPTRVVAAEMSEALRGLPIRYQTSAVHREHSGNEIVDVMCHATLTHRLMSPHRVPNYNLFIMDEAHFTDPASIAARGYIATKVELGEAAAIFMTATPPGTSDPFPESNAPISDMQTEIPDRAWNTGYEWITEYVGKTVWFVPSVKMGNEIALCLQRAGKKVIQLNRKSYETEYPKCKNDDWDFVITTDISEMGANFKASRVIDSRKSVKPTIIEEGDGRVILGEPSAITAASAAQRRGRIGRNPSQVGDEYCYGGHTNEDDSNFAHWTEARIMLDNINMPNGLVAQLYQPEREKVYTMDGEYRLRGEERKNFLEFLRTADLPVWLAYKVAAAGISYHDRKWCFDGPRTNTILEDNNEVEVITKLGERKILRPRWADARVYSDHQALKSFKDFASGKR

Residues, ends and D or L forms follow the SMILES beside them. *: point of attachment. Bz = O=C(c1ccccc1)*

Usually IC50 stands for the midpoint of a concentration-inhibition curve. Read a high IC50 as weaker potency. By inhibition is commonly meant how much of the control response was suppressed. In turn, `N=C(N)NCCC[C@H](NC(=O)c1ccccc1)C(=O)N[C@@H](CCCCN)C(=O)NCC(N)=O` (Bz-Arg-Lys-Gly-NH2) gave an IC50 against Genome polyprotein [1] of 23 µM. For the same molecule, the inhibition in data set [2] was 15.3%; in data set [3], less than 10%; in data set [4], 68.6%. Also, the “inhibition (INH)” value against Trypsin and against Prothrombin was “Not Active” in each case.

One may read the CC50 as the concentration that lowers cell viability or growth by half. Regarding `CC(=O)N[C@H](C(=O)NCc1ccc(NC(=N)N)cc1)c1ccc(OCc2ccccc2)cc1.O=C(O)C(F)(F)F`, the CC50 at 24 h in data set [5] was more than 50 µM. In addition, the inhibition in data set [2] is less than 10%; in data set [3], 28.9%; in data set [4], less than 10%. Besides, the “inhibition (INH)” value against Trypsin and against Prothrombin was “Not Active” in each case.

For `CCCCCC(=O)N[C@H](C(=O)NCCN)c1ccc(OCc2ccccc2)cc1`, the 50% cytotoxic concentration (CC50) at 24 h in data set [5] is more than 50 µM. For the same molecule, the inhibition is less than 10% in data set [2], 44% in data set [3] and less than 10% in data set [4]. In addition, the “inhibition (INH)” value against Trypsin and on Prothrombin was “Not Active” throughout.

As to `CCCCCC(=O)N[C@H](C(=O)Nc1ccc(NC(=N)N)cc1)c1ccc(OCc2ccccc2)cc1.O=C(O)C(F)(F)F`, in data set [5], the CC50 at 24 h is not below 12.5 µM. Besides, the inhibition in data set [2] stood at 53.8%; in data set [4], 62.6%. Moreover, the “inhibition (INH)” value at Trypsin and against Prothrombin was “Not Active” in each case.

Regarding `CCCCCC(=O)N[C@@H](C(=O)NCc1ccc(CN)cc1)c1ccc(OCc2ccc(Cl)c(Cl)c2)cc1.O=C(O)C(F)(F)F`, the 50% inhibitory concentration (IC50) on Genome polyprotein [1] is 3.1 µM; against Genome polyprotein [6], 11 µM. Moreover, the 50% cytotoxic concentration (CC50) at 24 h in data set [5] was less than 12.5 µM. Also, the inhibition in data set [2] is 100%; in data set [4], 95.2%. In addition, the “inhibition (INH)” value against Trypsin and at Prothrombin was “Not Active” in each case.

In the case of `CCCCCC(=O)N[C@H](C(=O)Nc1ccc(N)cc1)c1ccc(OCc2ccccc2)cc1.O=C(O)C(F)(F)F`, the CC50 at 24 h in data set [5] is more than 50 µM. Further, the inhibition in data set [2] came out at 10.7%; in data set [3] it was 49.5%; in data set [4] it was 13.2%. Also, the “inhibition (INH)” value on Trypsin and against Prothrombin was “Not Active” throughout.

`CCCCCC(=O)N[C@H](C(=O)NCc1ccc(NC(=N)N)cc1)c1ccc(OCc2ccc(C(C)(C)C)cc2)cc1.O=C(O)C(F)(F)F`: the concentration for half-maximal inhibition (IC50) turned out to be 13 µM at Genome polyprotein [1] and 16 µM against Genome polyprotein [6]. In data set [5], the 50% cytotoxic concentration (CC50) at 24 h was more than 12.5 µM. Besides, the values for the inhibition in data set [2], in data set [3] and in data set [4] were 98.9%, 38.7% and 98.1%, respectively. The “inhibition (INH)” value against Trypsin and against Prothrombin was “Not Active” in each case.

As for `CCCCCC(=O)N[C@H](C(=O)NCc1ccc(N)cc1)c1ccc(OCc2ccccc2)cc1.O=C(O)C(F)(F)F`, the 50% cytotoxic concentration (CC50) at 24 h in data set [5] is more than 50 µM. Further, the inhibition worked out at 13.5% in data set [2], 43% in data set [3] and 13% in data set [4]. For the same molecule, the “inhibition (INH)” value against Trypsin and at Prothrombin was “Not Active” throughout.

Take `CCCCCC(=O)N[C@H](C(=O)NCCCCN)c1ccc(OCc2ccccc2)cc1`: the CC50 at 24 h in data set [5] is more than 50 µM. Besides, the inhibition is less than 10% in data set [2], 45.8% in data set [3] and 21.3% in data set [4]. Besides, the “inhibition (INH)” value against Trypsin and at Prothrombin was “Not Active” in each case.

Regarding `CCCCCC(=O)N[C@H](C(=O)NCc1ccc(NC(N)=O)cc1)c1ccc(OCc2ccccc2)cc1`, the CC50 at 24 h in data set [5] is more than 50 µM. For the same molecule, the figures for the inhibition in data set [2], in data set [3] and in data set [4] were 34.2%, 24% and 23.1%, respectively. Also, the “inhibition (INH)” value at Trypsin and against Prothrombin was “Not Active” each time.

With `CCCCCC(=O)N[C@H](C(=O)NCc1ccc(NC(=N)N)cc1)c1ccc(OCc2cccc(OC)c2)cc1.O=C(O)C(F)(F)F`, the CC50 at 24 h in data set [5] is more than 50 µM. Further, the figures for the inhibition in data set [2], in data set [3] and in data set [4] were 15.7%, 26% and 32.5%, respectively. Further, the “inhibition (INH)” value on Trypsin and on Prothrombin was “Not Active” throughout.

On to `CCCCCC(=O)N[C@H](C(=O)NCc1ccc(C(=O)NN)cc1)c1ccc(OCc2ccccc2)cc1`, for which the CC50 at 24 h in data set [5] is more than 50 µM. Besides, the inhibition in data set [2] was determined as 55%; in data set [3], 30.7%; in data set [4] it was 28.3%. Further, the “inhibition (INH)” value at Trypsin and against Prothrombin was “Not Active” throughout.

For the molecule `CCCCCC(=O)N[C@H](C(=O)NCc1ccc(NC(=N)N)cc1)c1ccccc1.O=C(O)C(F)(F)F`, the CC50 at 24 h in data set [5] was more than 50 µM. Also, the inhibition in data set [2] was less than 10%; in data set [3], 18.8%; in data set [4], less than 10%. Moreover, the “inhibition (INH)” value against Trypsin and against Prothrombin was “Not Active” in each case.

`N=C(N)Nc1ccc(CNC(=O)[C@@H](NC(=O)c2ccccc2)c2ccc(OCc3ccccc3)cc2)cc1.O=C(O)C(F)(F)F`: the CC50 at 24 h in data set [5] was more than 50 µM. The inhibition in data set [2] turned out to be 18.9%; in data set [3], 10.5%; in data set [4], 39%. Further, the “inhibition (INH)” value against Trypsin and on Prothrombin was “Not Active” each time.

As for `CCCCCC(=O)N[C@H](C(=O)NCc1ccncc1)c1ccc(OCc2ccccc2)cc1`, the 50% cytotoxic concentration (CC50) at 24 h in data set [5] is more than 50 µM. The inhibition is less than 10% in data set [2], 40.6% in data set [3] and less than 10% in data set [4]. For the same molecule, the “inhibition (INH)” value against Trypsin and on Prothrombin was “Not Active” each time.

On Genome polyprotein [1], `CCCCCC(=O)N[C@H](C(=O)NCc1ccc(NC(=N)N)cc1)c1ccc(OCc2ccc(C#N)cc2)cc1.O=C(O)C(F)(F)F` displayed a half-maximal inhibitory concentration (IC50) of 40 µM. Also, the cytotoxic concentration (CC50) at 24 h in data set [5] was more than 50 µM. The inhibition in data set [2] is 24.8%; in data set [3] it was 12.7%; in data set [4], 74.3%. Further, the “inhibition (INH)” value against Trypsin and against Prothrombin was “Not Active” in each case.

Regarding `CCCCCC(=O)N[C@H](C(=O)NCc1ccccc1)c1ccc(OCc2ccccc2)cc1`, in data set [5], the CC50 at 24 h is more than 50 µM. Moreover, the inhibition in data set [2], in data set [3] and in data set [4] was less than 10% throughout. Besides, the “inhibition (INH)” value against Trypsin and against Prothrombin was “Not Active” throughout.

In the case of `CCCCCC(=O)N[C@H](C(=O)NCc1ccc(NC(=O)CN)cc1)c1ccc(OCc2ccccc2)cc1`, the half-maximal cytotoxic concentration (CC50) at 24 h in data set [5] was more than 50 µM. Further, the values for the inhibition in data set [2], in data set [3] and in data set [4] were less than 10%, 10.1% and 28.2%, respectively. In addition, the “inhibition (INH)” value at Trypsin and against Prothrombin was “Not Active” throughout.

Take `CCCCCC(=O)N[C@H](C(=O)Nc1ccc(CN)cc1)c1ccc(OCc2ccccc2)cc1.O=C(O)C(F)(F)F`: the CC50 at 24 h in data set [5] is less than 12.5 µM. The inhibition is 37.6% in data set [2] and 26.5% in data set [4]. Besides, the “inhibition (INH)” value against Trypsin and at Prothrombin was “Not Active” throughout.

With `CCCCCC(=O)N[C@H](C(=O)NCc1ccc(C#N)cc1)c1ccc(OCc2ccccc2)cc1`, in data set [5], the 50% cytotoxic concentration (CC50) at 24 h is more than 50 µM. Moreover, the inhibition was 25.6% in data set [2], 28.3% in data set [3] and less than 10% in data set [4]. Further, the “inhibition (INH)” value against Trypsin and on Prothrombin was “Not Active” in each case.

In the case of `CCCCCC(=O)N[C@H](C(=O)NCc1cccc(CNC(=N)N)c1)c1ccc(OCc2ccccc2)cc1`, in data set [5], the 50% cytotoxic concentration (CC50) at 24 h is more than 50 µM. Besides, the inhibition is 32.7% in data set [2], 47.4% in data set [3] and 43.8% in data set [4]. Moreover, the “inhibition (INH)” value against Trypsin and against Prothrombin was “Not Active” in each case.

Regarding `N=C(N)NCCC[C@H](NC(=O)c1ccc(/C=C2\SC(=O)N(C3CCC3)C2=O)cc1)C(=O)N[C@@H](CCCCN)C(=O)N[C@H](C(N)=O)c1ccccc1`, the “inhibition (INH)” value against Trypsin and on Prothrombin was “Not Active” throughout.

With `CCCCCC(=O)N[C@H](C(=O)N[C@@H](CCCCN)C(N)=O)c1ccc(OCc2ccccc2)cc1`, the CC50 at 24 h in data set [5] was more than 50 µM. The inhibition was less than 10% in data set [2], 11.1% in data set [3] and less than 10% in data set [4]. Besides, the “inhibition (INH)” value against Trypsin and at Prothrombin was “Not Active” throughout.

Consider `N=C(N)NCCC[C@H](NC(=O)[C@H](Cc1ccc(CN)cc1)NC(=O)c1ccccc1)B(O)O`, for which the “inhibition (INH)” value on Trypsin and at Prothrombin was “Not Active” each time.
